Reference: paper PMC6273954, “Antileishmanial Activity and Structure-Activity Relationship of Triazolic Compounds Derived from the Neolignans Grandisin, Veraguensin, and Machilin G” (Molecules, 2016)
pIC50: −log10 of the molar value. Converted amounts (≈) assume the structure as drawn. Like-named read-outs stand apart in the source and are kept apart here.

Tests used:
J774.A1 cells = assay: Cytotoxicity assay (sulforhodamine B); format: cell-based, murine; conditions: for SI (selectivity index): IC50 on mammalian cells/IC50 on intracellular amastigotes; for pIC50: Mus musculus, J774.A1, murine macrophages, 48 h, sulforhodamine B; for cytotoxicity on mammalian cells: J774.A1 macrophages
Procedure: Amphotericin B (Sigma-Aldrich®) was used as the reference drug (0.025–25 µg·mL^−1). Cell growth was evaluated according to Skehan et al. using the sulforhodamine B assay. Dimethyl sulfoxide (DMSO, Vetec®, Rio de Janeiro, Brazil) was used as negative control at the concentration used to solubilize the highest concentration of compounds. IC50 was calculated by nonlinear regression curve. Selectivity index was calculated according to Medeiros et al..

[1] = test system: L. (L.) amazonensis intracellular amastigotes; assay: In vitro antileishmanial activity on intracellular amastigotes in peritoneal macrophages; format: cell-based, Leishmania (Leishmania) amazonensis; parameters: key to activity class against intracellular amastigotes: active (<20 µM); moderately active (20–50 µM); potentially inactive (>50 µM); conditions: for pIC50: Leishmania amazonensis, Peritoneal macrophage; for effect on infection index / concentration from which infection index was significantly decreased: versus untreated cells
Procedure: In vitro antileishmanial activity was evaluated on peritoneal macrophages infected with. L. (L.) amazonensis intracellular amastigotes. Parasites (IFLA/BR/1967/PH8 strain) were routinely isolated from BALB/c mice and maintained as promastigotes at 25 °C in Schneider's Insect Medium (Sigma-Aldrich®, St. Louis, MO, USA) supplemented with 20% fetal calf serum (FCS-Cultilab® Campinas, Brazil) and 140 μg·mL^-1 gentamicin (Sigma-Aldrich®). Macrophages were obtained from peritoneal wash of BALB/c mice after euthanasia. 10 mL of RPMI 1640 (Sigma-Aldrich®) supplemented with 2% L-glutamine, 2.8% bicarbonate buffer, 100 U·mL^-1 penicillin and […] streptomycin were injected into the peritoneal cavity. After massage area, liquid was aspirated and transferred to tubes on ice. Peritoneal cells were quantified in Neubauer chamber after cellular exclusion with Trypan Blue staining (Sigma-Aldrich®). Peritoneal cells (1 × 10^5 cells/well) were added to 24-well plates containing circular coverslips. Plates were incubated for one hour at 37 °C/5% CO2 to allow cell adhesion and then 1 × 10^6 L. (L.) amazonensis promastigotes were added to each well. Plates were incubated at 35 °C/5% CO2 for four hours and then cells were treated for 24 h with synthetic compounds 4-19 (6.25-50 μg·mL^-1). Amphotericin B (Sigma-Aldrich®) was used as the reference drug (0.25 to 2 μg·mL^-1) and untreated cells were used as negative control. Coverslips were processed as described by Rizk et al.. The overall number of amastigotes was determined by counting 100 cells in six replicates. The half maximal inhibitory concentration (IC50) was calculated using a nonlinear regression curve. Infection index was obtained as described by […] et al..

[2] = test system: L. amazonensis infected macrophages; assay: Nitric oxide production by infected and treated peritoneal cells (Griess); format: cell-based, BALB/c mice
Procedure: To evaluate the nitric oxide production (NO) by infected and treated peritoneal cells, 50 µL of culture supernatant from the antileishmanial assay were collected and incubated with equal volume of Griess reagent (1% sulfanilamide /0.1% naphthalene diamine in 5% phosphoric acid) for 10 min at room temperature. According to Ding et al., the absorbance was determined at 540 nm and converted to NO2^− (µM) by comparing to a standard curve of known concentrations of sodium nitrite (1–10 µM) in RPMI medium (Sigma-Aldrich®).

[3] = test system: L. donovani promastigote forms; parameters: method as in PMID 18688887; conditions: cited from earlier work
[4] = test system: L. (L.) amazonensis promastigotes; conditions: cited from earlier work
[5] = 24 h, classified by IC50 according to Upegui et al., read-out: activity class against intracellular amastigotes
[6] = in Mus musculus, infected BALB/c peritoneal macrophages, treated 24 h, read-out: Intracellular Amastigotes IC50
[7] = highest reduction reached / at the highest concentration, 24 h after treatment
[8] = 24 h after treatment, compared to untreated infected cells (control)
[9] = classified by IC50 according to Upegui et al.
[10] = at the highest concentration(s) tested, compared to control
[11] = at the lowest concentrations tested, compared to control

Row | Compound | SI (selectivity index) (J774.A1 cells) | pIC50 (J774.A1 cells) | pIC50 [1, 5] | pIC50 [1, 6] | nitric oxide (NO) production [2, 8] | activity class against intracellular amastigotes [1, 9] | also measured
1 | COc1cc(-c2cn(-c3ccc4c(c3)OCO4)nn2)cc(OC)c1OC [Compound 18] | 2.2 | 4.17 | 4.30 to 4.70 | 4.53 | did not induce a significant production of NO | – | reduction of infection index [1, 7]: 92.1%
2 | COc1ccc(-c2cn(-c3ccc(OC)c(OC)c3)nn2)cc1 [Compound 8] | 4.9 | 4.10 | – | 4.80 | – | active | –
3 | COc1ccc([C@H]2O[C@@H](c3ccc(OC)c(OC)c3)[C@H](C)[C@H]2C)cc1OC [veraguensin] | – | – | – | – | – | – | pIC50 [3]: 4.32; activity on L. donovani promastigote forms [3]: 18 µg/mL
4 | COc1ccc(-n2cc(-c3cc(OC)c(OC)c(OC)c3)nn2)cc1 [Compound 11] | 4.1 | 4.17 | – | 4.78 | – | active | nitric oxide (NO) production [2, 10]: higher than control; nitric oxide (NO) production [2, 11]: lower than untreated cells
5 | COc1ccc(-c2cn(-c3ccc(OC)cc3)nn2)cc1 [Compound 4] | 66.9 | 3.06 | – | 4.88 | – | active | nitric oxide (NO) production [2, 10]: increase of NO production
6 | COc1ccc(-n2cc(-c3ccc4c(c3)OCO4)nn2)cc1OC [Compound 17] | 0.3 | 5.04 | 4.30 to 4.70 | 4.52 | – | – | cytotoxicity on mammalian cells (J774.A1 cells): toxic for the macrophages
7 | COc1cccc2c1C(=O)c1c(O)c3c(c(O)c1C2=O)C[C@@](O)(C(=O)CO)C[C@@H]3O[C@H]1C[C@H](N)[C@H](O)[C@H](C)O1 [Doxorubicin, reference compound] | – | 6.30 | – | – | – | – | –
8 | COc1ccc(-c2cn(-c3ccc4c(c3)OCO4)nn2)cc1 [Compound 12] | 6.5 | 4.02 | – | 4.83 | increase in NO production | active | nitric oxide (NO) production [2, 10]: increase of NO production
9 | COc1ccc(-n2cc(-c3ccc(OC)c(OC)c3)nn2)cc1 [Compound 9] | 1.2 | 4.65 | – | 4.74 | – | active | –
10 | COc1ccc(-c2cn(-c3cc(OC)c(OC)c(OC)c3)nn2)cc1 [Compound 10] | 3.9 | 4.18 | – | 4.77 | – | active | –
11 | COc1ccc(-n2cc(-c3cc(OC)c(OC)c(OC)c3)nn2)cc1OC [Compound 15] | 2.6 | 4.11 | 4.30 to 4.70 | 4.53 | – | – | –
12 | COc1cc([C@@H]2O[C@@H](c3cc(OC)c(OC)c(OC)c3)[C@H](C)[C@H]2C)cc(OC)c1OC [grandisin] | – | – | – | – | – | – | IC50 on L. (L.) amazonensis promastigotes [4]: 42.4 µg/mL (≈ 98 µM); pIC50 ([4]; read-out: IC50 on L. (L.) amazonensis promastigotes): 4.01
13 | C[C@@H]1[C@H](O)[C@@H](C)/C=C/C=C/C=C/C=C/C=C/C=C/C=C/[C@H](O[C@@H]2O[C@H](C)[C@@H](O)[C@H](N)[C@@H]2O)C[C@@H]2O[C@](O)(C[C@@H](O)C[C@@H](O)[C@H](O)CC[C@@H](O)C[C@@H](O)CC(=O)O[C@H]1C)C[C@H](O)[C@H]2C(=O)O [Amphotericin B, reference compound] | 3.1 | 5.66 | – | 6.15 | – | – | –
14 | COc1cc(-n2cc(-c3ccc4c(c3)OCO4)nn2)cc(OC)c1OC [Compound 19] | 10.6 | 4.33 | – | 5.36 | induced nitric oxide production | active | cytotoxicity on mammalian cells (J774.A1 cells): low cytotoxicity on mammalian cells; effect on infection index ([1]; 24 h after treatment): significantly reduced the infection index; pIC50 ([4]; read-out: IC50 against L. (L.) amazonensis promastigote forms): 5.14; nitric oxide (NO) production [2, 10]: twice as high than control
15 | COc1ccc(-c2cn(-c3ccc(OC)c(OC)c3)nn2)cc1OC [Compound 5] | 3.6 | 4.12 | 4.30 to 4.70 | 4.67 | – | – | concentration from which infection index was significantly decreased ([1]; 24 h after treatment): 12.5 µg/mL; nitric oxide (NO) production ([2]; at 25 µg·mL−1, compared to control): lower than control
16 | c1cc2c(cc1-c1cn(-c3ccc4c(c3)OCO4)nn1)OCO2 [Compound 7] | 4.2 | 4.06 | 4.30 to 4.70 | 4.69 | – | – | –
17 | COc1ccc(-n2cc(-c3ccc4c(c3)OCO4)nn2)cc1 [Compound 13] | 2.6 | 3.87 | – | 4.29 | increase in NO production | did not show potential activity | –
18 | COc1ccc(-c2cn(-c3cc(OC)c(OC)c(OC)c3)nn2)cc1OC [Compound 14] | 14.1 | 4.10 | – | 5.25 | induced nitric oxide production | active | cytotoxicity on mammalian cells (J774.A1 cells): low cytotoxicity on mammalian cells; effect on infection index ([1]; 24 h after treatment): reduced the infection index at all concentrations tested; reduction of infection index [1, 7]: 86.4%; nitric oxide (NO) production [2, 11]: significantly induced NO production
19 | COc1cc(-c2cn(-c3cc(OC)c(OC)c(OC)c3)nn2)cc(OC)c1OC [Compound 6] | >66.2 | < 3.21 | – | 5.03 | increased production of nitric oxide | active | concentration from which infection index was significantly decreased ([1]; 24 h after treatment): 6.25 µg/mL; reduction of infection index ([1]; at 50 µg·mL−1, 24 h after treatment): 98.6%; activity on promastigote forms [4]: inactive on promastigote forms
20 | COc1ccc(-c2cn(-c3ccc4c(c3)OCO4)nn2)cc1OC [Compound 16] | >23.5 | < 3.11 | 4.30 to 4.70 | 4.49 | significantly induce NO production | – | –
